Experimental data as given in patent US20110152267A1, “Compositions and Methods for Treating Hyperproliferative Disorders” (Texas Tech University System, priority 2009, published 2011).

Key:
[1] = test system: CRL-2076 normal human fibroblast cell line; experiment: DIMSCAN cytotoxicity, fenretinide + L-threo-sphinganines 3:1 (Example B1); type: cell-based; conditions: CRL-2076, 20% O2, 96 h
Experimental: (§1) Cytotoxicity Assay—Once again, cytotoxicity is determined using the DIMSCAN assay system (R. Proffitt et al., Cytometry 24, 204-213 (1996); T. Frgala et al., Mol Cancer Ther. 6:886-97, 2007). The system employs digital imaging microscopy to quantify viable cells, which selectively accumulate fluorescein diacetate to become brightly fluorescent. The system is capable of measuring cytotoxicity over a 4-5 log dynamic range by quenching the residual fluorescence of dead and dying cells with eosin Y and quantifying the total fluorescence of viable cells using digital thresholding. Measured fluorescence is directly proportionate to the number of viable cells. A comparison of the total fluorescence of a drug-treated cell population to the fluorescence of a similar number of untreated cells yields a survival fraction. In brief, 2000 to 10,000 cells/well (depending on size and growth rates) are replicate plated into 60 wells of a 96-well tissue culture plate in 0.1 mL of whole medium and allowed to attach overnight. Drug(s) are then added in 0.05 mL of whole medium to the final concentrations indicated. Drugs (fenretinide, and various chain length L-threo-sphinganines) were tested both as single agents and in a 3:1 ratio of fenretinide:sphinganine. C18-L-threo-sphinganine, or “safingol,” was also tested and results shown for reference. There are 12 wells treated per drug concentration. Twelve wells receive drug vehicle-only to the appropriate final concentration and serve as controls for the plate. Cells are incubated for 96 hours at 37° C. in ambient air with 5% CO2. Fluorescein diacetate is then added to each well in 0.05 mL media to a final concentration of 8 microgram/mL. Cells are incubated for a further 15 minutes at 37° C. and 0.03 mL of 0.5% eosin Y is added to each well. Total fluorescence of viable cells is then measured by digital imaging microscopy. Results were graphed as the ratio of the fluoresecence of drug-treated wells to non-drug treated control wells (i.e., Survival Fraction). All tests were performed at least twice. Representative results are shown.
(§2) The Combination Index (CI) is a term to describe mathematical modeling of the pharmacologic effects on cytotoxicity (cell death) of two drugs in combination based. Cytotoxic “synergy” is defined as a cell death affect which is greater than would be expected from a simple product of the single agent cytotoxicities alone (i.e. an “additive” effect). By Chou-Talalay analysis, a CI<0.9 on a Fraction Affected (“Fa”, i.e. fraction of cells killed) indicates synergy, with smaller numbers indicating greater synergy; a CI of 0.9-1.1 signifies an additive or near-additive effect; and a CI>1.1 means the drug combination is antagonistic.
(§3) Fenretinide and L-threo-sphinganines tested in normal human fibroblast (normal skin cell) cell lines, CRL-2091 and CRL-2076.

[2] = test system: CRL-2091 normal human fibroblast cell line; experiment: as above; type: cell-based; conditions: CRL-2091, 20% O2, 96 h
Experimental: as §1, §2, §3

[3] = test system: OE-33 esophageal adenocarcinoma cell line; experiment: DIMSCAN cytotoxicity, fenretinide + L-threo-sphinganines 3:1 (Example B19); type: cell-based, human
Experimental: as §1, §2
Fenretinide and L-threo-sphinganines tested in human esophageal adenocarcinoma (esophagus cancer) cell lines, OE-19 and OE-33.

[4] = test system: CHLA-90 pediatric neuroblastoma cell line; experiment: DIMSCAN cytotoxicity, fenretinide + L-threo-sphinganines 3:1 (Example B21); type: cell-based, human
Experimental: as §1, §2
Fenretinide and L-threo-sphinganines tested in human pediatric neuroblastoma (a nerve-related, solid tumor cancer) cell line, CHLA-90.

[5] = test system: GBM2 glioblastoma brain cancer cell line; experiment: DIMSCAN cytotoxicity dose-response with fenretinide, with or without D-threo-PPMP (Examples A, FIGS. 3, 9, 14, 18-20); type: cell-based, human; conditions: +96 hrs; for C.I. of D-threo-PPMP with fenretinide+L-threo-sphinganine (three drug combination): 2% oxygen, D-threo-PPMP fixed 10 uM, at most doses; for C.I. (Combination Index) with fenretinide: at one or more doses
Experimental: (§4) Cytotoxicity Assay: Cytotoxicity in cell lines was determined using a fluorescence-based assay employing digital imaging microscopy (DIMSCAN)(after Fragala, et al, Mol Cancer Ther, 6:886-897, 2007). DIMSCAN quantitates viable cells which selectively accumulate fluorescein diacetate and is capable of measuring cytotoxicity over a 4-5 log dynamic range by quantifying total fluorescence per well (which is proportional to viable, clonogenic cells) after eliminating background fluorescence using digital thresholding and eosin Y quenching. Briefly, cell lines were seeded into 96-well plates in 100 µL of complete culture medium (10-20% serum) per well. Cells were incubated overnight in 2%, 5% or 20% oxygen (room air) prior to addition of drugs in […] volumes of complete medium to various final drug concentrations in replicates of 12 wells per concentration. In assays employing D-threo-PPMP, PPMP was employed at a fixed, minimally-toxic, final concentration of 10 μM in each well. Control wells received ethanol (final concentration=0.12%-0.20%) in complete medium equivalent to the maximum final ethanol concentration of drug-treated wells. Plates were incubated at various oxygen concentrations to simulate physiological hypoxia (i.e., 2% oxygen=typical solid tumor oxygen levels; 5%=bone marrow oxygen levels for leukemias; 20% room air=supraphysiological oxygen for comparison with typical laboratory culture conditions). Plates were assayed at 3-4 days after initiating drug exposure depending on the growth properties of each cell line, to allow for maximum cell death and outgrowth of surviving cells. To measure cytotoxicity, FDA (stock solution of 1 mg/ml in DMSO) was added, in 50 µL of complete medium per well, to a final concentration of 10 µg/ml. The plates were incubated for an additional 15-30 minutes at 37 C and then 30 µL of eosin Y (0.5% in normal saline) was added per well. Total fluorescence of each well was then measured using digital imaging microscopy.
FIGS. 1 to 26 illustrate the effect (Examples A1 through A26) of the claimed invention and were carried out using the procedures disclosed herein.

[6] = test system: COG-LL-317 Acute Lymphoblastic Leukemia (ALL) cancer cell line; experiment: DIMSCAN cytotoxicity dose-response with fenretinide (Examples A, FIGS. 5, 11, 17); type: cell-based, human; conditions: 5% oxygen, at one or more doses, +96 hrs
Experimental: as §4, with “microscopy. […]” for “microscopy.”

[7] = 4-HPR 1.5 μM + L-threo-sphinganine 0.5 μM
[8] = 4-HPR 3 μM + L-threo-sphinganine 1 μM
[9] = 4-HPR 6 μM + L-threo-sphinganine 2 μM
[10] = 4-HPR 9 μM + L-threo-sphinganine 3 μM
[11] = 4-HPR 12 μM + L-threo-sphinganine 4 μM

Structure (SMILES)	CI (Combination Index) [1, 7]	Fa (fraction affected) [1, 7]	CI (Combination Index) [1, 8]	Fa (fraction affected) [1, 8]	CI (Combination Index) [1, 9]	Fa (fraction affected) [1, 9]	CI (Combination Index) [1, 10]	Fa (fraction affected) [1, 10]	CI (Combination Index) [2, 7]	Fa (fraction affected) [2, 7]	CI (Combination Index) [2, 8]	Fa (fraction affected) [2, 8]	CI (Combination Index) [2, 9]	Fa (fraction affected) [2, 9]	CI (Combination Index) [2, 10]	Fa (fraction affected) [2, 10]	CI [3, 7]	Fa [3, 7]	CI [3, 8]	Fa [3, 8]	also measured
CCCCCCCCC[C@H](O)[C@@H](N)CO [C12]	1	0.17	>1	0.30	>1	0.29	>1	0.30	>1	0.27	0.76	0.44	>1	0.42	>1	0.54	1.0	0.376	1.0	0.618	CI [3, 9]: 1.3; Fa [3, 9]: 0.758; CI [3, 10]: 1.1; Fa [3, 10]: 0.925
CCCCCCCCCCC[C@H](O)[C@@H](N)CO [C14]	>1	0.10	>1	0.10	>1	0.12	>1	0.08	>1	0.32	>1	0.40	>1	0.21	>1	0.69	–	–	–	–	–
CCCCCCCCCCCC[C@H](O)[C@@H](N)CO [C15]	1	0.08	>1	0.09	>1	0.06	>1	0.07	>1	0.26	>1	0.39	>1	0.29	>1	0.66	–	–	–	–	–
CCCCCCCCCCCCCC[C@H](O)[C@@H](N)CO [C17, (2S,3S)-2-amino-1,3-heptadecanediol]	>1	0.05	>1	0.04	>1	0.09	>1	0.15	>1	0.13	>1	0.25	>1	0.13	>1	0.62	1.5	0.376	1.1	0.767	CI [3, 9]: 0.8; Fa [3, 9]: 0.945; CI [3, 10]: 0.4; Fa [3, 10]: 0.991; CI [4, 8]: 0.4; Fa [4, 8]: 0.994; CI [4, 9]: 0.4; Fa [4, 9]: 0.999; CI [4, 10]: 0.6; Fa [4, 10]: 0.9997; CI [4, 11]: 0.3; Fa [4, 11]: 1; C.I. of D-threo-PPMP with fenretinide+L-threo-sphinganine (three drug combination) [5]: < 1; C.I. (Combination Index) with fenretinide [5]: < 1; C.I. (Combination Index) with fenretinide [6]: < 1
CCCCCCCCCCCCCCC[C@H](O)[C@@H](N)CO [C18, (2S,3S)-2-amino-1,3-octadecanediol, reference compound]	>1	0.20	1	0.11	>1	0.35	>1	0.94	>1	0.16	>1	0.29	>1	0.29	0.33	0.73	–	–	–	–	CI [4, 8]: 0.5; Fa [4, 8]: 0.996; CI [4, 9]: 0.3; Fa [4, 9]: 0.9993; CI [4, 10]: 0.4; Fa [4, 10]: 0.9999; Fa [4, 11]: 1
CCCCCCCCCCCCCCCC[C@H](O)[C@@H](N)CO [C19, (2S,3S)-2-amino-1,3-nonadecanediol]	–	–	–	–	–	–	–	–	–	–	–	–	–	–	–	–	1.9	0.299	1.6	0.582	CI [3, 9]: 0.6; Fa [3, 9]: 0.951; CI [3, 10]: 0.3; Fa [3, 10]: 0.989; CI [4, 8]: 0.4; Fa [4, 8]: 0.9960; CI [4, 9]: 0.1; Fa [4, 9]: 0.9993; CI [4, 10]: 0.1; Fa [4, 10]: 1; Fa [4, 11]: 1.0000; C.I. of D-threo-PPMP with fenretinide+L-threo-sphinganine (three drug combination) [5]: < 1; C.I. (Combination Index) with fenretinide [5]: < 1; C.I. (Combination Index) with fenretinide [6]: < 1
CCCCCCCCCCCCCCCCC[C@H](O)[C@@H](N)CO [C20, (2S,3S)-2-amino-1,3-icosanediol]	–	–	–	–	–	–	–	–	–	–	–	–	–	–	–	–	1.9	0.255	1.9	0.445	CI [3, 9]: 0.8; Fa [3, 9]: 0.883; CI [3, 10]: 0.2; Fa [3, 10]: 0.993; CI [4, 8]: 0.5; Fa [4, 8]: 0.996; CI [4, 9]: 0.7; Fa [4, 9]: 0.999; CI [4, 10]: 1.1; Fa [4, 10]: 0.999; CI [4, 11]: 1.5; Fa [4, 11]: 0.9999; C.I. of D-threo-PPMP with fenretinide+L-threo-sphinganine (three drug combination) [5]: < 1; C.I. (Combination Index) with fenretinide [5]: < 1; C.I. (Combination Index) with fenretinide [6]: < 1
